US20260217706A1, “HETEROCYCLIC COMPOUNDS, PREPARATION METHOD THEREFOR AND USE THEREOF” (GUANGZHOU YUFAN NANTU BIOTECHNOLOGIES CO., LTD, priority 2023, published 2026)

Key:
[1] = tested on: anti-CD3 activated human PBMCs; assay: Effect of compounds on the level of IL-2 secretion by anti-CD3 activated human PBMCs (IL-2 ELISA); type: cell-based; details: compound concentration at which fold change in IL-2 = 5; hPBMCs, CD3 antibody 2 μg/mL, 48 h, compound from 3 μM
In short: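 Human PBMCs were preincubated 1 h, then exposed to compound (10 points, 3-fold from 3 μM final) with anti-CD3 at 2 μg/mL for 48 h at 37° C. Supernatant IL-2 was measured by ELISA as fold change over DMSO.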

[2] = molecular target: CBL-B protein (Homo sapiens, UniProt Q13191); assay: CBL-B binding experiment (Streptavidin-Tb cryptate / Ligand L1 displacement); details: 8 nM CBL-B protein, 25° C., 60 minutes; Ki=Relative IC50/2
Sequence of CBL-B protein (Q13191 whole entry): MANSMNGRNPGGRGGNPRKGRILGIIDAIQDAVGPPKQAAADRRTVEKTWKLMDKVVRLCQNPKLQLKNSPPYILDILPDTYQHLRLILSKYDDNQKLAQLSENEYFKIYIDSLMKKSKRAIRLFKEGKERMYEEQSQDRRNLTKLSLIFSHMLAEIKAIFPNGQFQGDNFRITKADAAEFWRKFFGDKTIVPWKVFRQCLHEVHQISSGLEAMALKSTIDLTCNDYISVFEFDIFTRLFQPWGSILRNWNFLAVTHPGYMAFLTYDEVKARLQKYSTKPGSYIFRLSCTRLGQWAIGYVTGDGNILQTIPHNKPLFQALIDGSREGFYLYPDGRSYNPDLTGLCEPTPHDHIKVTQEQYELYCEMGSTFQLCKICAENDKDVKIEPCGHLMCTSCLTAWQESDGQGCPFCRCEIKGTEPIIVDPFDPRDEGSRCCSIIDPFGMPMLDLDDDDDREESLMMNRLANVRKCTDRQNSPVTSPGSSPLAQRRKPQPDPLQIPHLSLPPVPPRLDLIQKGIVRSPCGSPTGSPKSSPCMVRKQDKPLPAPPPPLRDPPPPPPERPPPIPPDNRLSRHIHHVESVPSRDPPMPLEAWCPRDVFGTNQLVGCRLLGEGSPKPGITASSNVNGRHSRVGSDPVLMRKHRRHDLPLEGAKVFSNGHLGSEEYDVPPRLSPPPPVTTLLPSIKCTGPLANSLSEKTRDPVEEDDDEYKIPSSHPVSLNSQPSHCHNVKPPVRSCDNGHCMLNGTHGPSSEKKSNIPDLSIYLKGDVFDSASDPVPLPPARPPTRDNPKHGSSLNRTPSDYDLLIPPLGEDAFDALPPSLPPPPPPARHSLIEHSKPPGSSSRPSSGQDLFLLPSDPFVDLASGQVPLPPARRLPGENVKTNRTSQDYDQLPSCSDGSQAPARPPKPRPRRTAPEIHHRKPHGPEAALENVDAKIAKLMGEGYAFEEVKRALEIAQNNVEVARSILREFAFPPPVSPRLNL
In short: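 Compounds in a 10-point DMSO series met 8 nM CBL-B protein in HEPES pH 7.5/NaCl/Triton/TCEP/BSA buffer at 25° C. for 60 min. A further 60 min at room temperature preceded the luminescence read, normalised to no-protein and DMSO wells. Ki was taken as relative IC50 divided by 2.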

| Ki [2] [nM] | Structure (SMILES) | IL-2 CFC=5/nM [1] [nM] |
| --- | --- | --- |
| < 50 | CC[C@H]1C[C@](c2cccc(-n3cc(C(F)(F)F)c4cc(CN5CCC[C@H](C)C5)[nH]c4c3=O)c2)(c2nncn2C)C1 [Compound T093, 6-(3-((1s,3S)-3-ethyl-1-(4-methyl-4H-1,2,4-triazol-3-yl)cyclobutyl)phenyl)-2-(((S)-3-methylpiperidin-1-yl)methyl)-4-(trifluoromethyl)-1,6-dihydro-7H-pyrrolo[2,3-c]pyridin-7-one] | <500 |
| < 50 | Cn1cnnc1C1(c2cccc(-n3cc(C(F)(F)F)c4cc(CNCCOC(F)(F)F)[nH]c4c3=O)c2)CCC1 [Compound T096, 6-[3-[1-(4-methyl-1,2,4-triazol-3-yl)cyclobutyl]phenyl]-2-[[2-(trifluoromethoxy)ethylamino]methyl]-4-(trifluoromethyl)-1H-pyrrolo[2,3-c]pyridin-7-one] | <500 |
| < 50 | C[C@H]1CCCN(Cc2cc3c(C(F)(F)F)cn(-c4cc(F)cc([C@]5(c6nncn6C)C[C@H](C)C5)c4)c(=O)c3[nH]2)C1 [Compound T103, 6-(3-fluoro-5-((1r,3S)-3-methyl-1-(4-methyl-4H-1,2,4-triazol-3-yl)cyclobutyl)phenyl)-2-(((S)-3-methylpiperidin-1-yl)methyl)-4-(trifluoromethyl)-1,6-dihydro-7H-pyrrolo[2,3-c]pyridin-7-one] | <500 |
| < 50 | C[C@H]1CCCN(Cc2cc3c(C(F)(F)F)cn(-c4cccc(C5(c6nncn6C)CC(F)(F)C5)c4)c(=O)c3[nH]2)C1 [Compound T109, 6-[3-[3,3-difluoro-1-(4-methyl-1,2,4-triazol-3-yl)cyclobutyl]phenyl]-2-[[(3S)-3-methyl-1-piperidyl]methyl]-4-(trifluoromethyl)-1H-pyrrolo[2,3-c]pyridin-7-one] | <500 |
| < 50 | C[C@@H]1CN(Cc2cc3c(C(F)(F)F)cn(-c4cccc(C5(c6nncn6C)CCC5)c4)c(=O)c3[nH]2)CCC1(F)F [Compound T111, (R)-2-((4,4-difluoro-3-methylpiperidin-1-yl)methyl)-6-(3-(1-(4-methyl-4H-1,2,4-triazol-3-yl)cyclobutyl)phenyl)-4-(trifluoromethyl)-1,6-dihydro-7H-pyrrolo[2,3-c]pyridin-7-one] | <500 |
| < 50 | C[C@H]1CCCN(Cc2cc3c(C(F)(F)F)cn(-c4cccc(C5([C@@H](F)c6nncn6C)CC(F)(F)C5)c4)c(=O)c3[nH]2)C1 [Compound T119, 6-(3-(3,3-difluoro-1-((R)-fluoro(4-methyl-4H-1,2,4-triazol-3-yl)methyl)cyclobutyl)phenyl)-2-(((S)-3-methylpiperidin-1-yl)methyl)-4-(trifluoromethyl)-1,6-dihydro-7H-pyrrolo[2,3-c]pyridin-7-one] | <500 |
| < 50 | C[C@H]1CCCN(Cc2cc3c(C(F)(F)F)cn(-c4cccc(C5([C@H](F)c6nncn6C)CC(F)(F)C5)c4)c(=O)c3[nH]2)C1 [Compound T120, 6-(3-(3,3-difluoro-1-((S)-fluoro(4-methyl-4H-1,2,4-triazol-3-yl)methyl)cyclobutyl)phenyl)-2-(((S)-3-methylpiperidin-1-yl)methyl)-4-(trifluoromethyl)-1,6-dihydro-7H-pyrrolo[2,3-c]pyridin-7-one] | <500 |
| < 50 | C[C@H]1CCCN(Cc2cc3c(C(F)(F)F)cn(-c4cc(C#N)cc([C@]5(c6nncn6C)C[C@@H](C)C5)c4)c(=O)c3[nH]2)C1 [Compound T121, 3-((1s,3R)-3-methyl-1-(4-methyl-4H-1,2,4-triazol-3-yl)cyclobutyl)-5-(2-(((S)-3-methylpiperidin-1-yl)methyl)-7-oxo-4-(trifluoromethyl)-1,7-dihydro-6H-pyrrolo[2,3-c]pyridin-6-yl)benzonitrile] | <500 |
| < 50 | C[C@H]1CCCN(Cc2cc3c(C(F)(F)F)cn(-c4cc(C#N)cc([C@]5(c6nncn6C)C[C@H](C)C5)c4)c(=O)c3[nH]2)C1 [Compound T122, 3-((1r,3S)-3-methyl-1-(4-methyl-4H-1,2,4-triazol-3-yl)cyclobutyl)-5-(2-(((S)-3-methylpiperidin-1-yl)methyl)-7-oxo-4-(trifluoromethyl)-1,7-dihydro-6H-pyrrolo[2,3-c]pyridin-6-yl)benzonitrile] | <500 |
| < 50 | C[C@H]1CCCN(Cc2cc3c(C(F)(F)F)cn(-c4cccc(C5(Cc6nncn6C)CC(F)(F)C5)c4)c(=O)c3[nH]2)C1 [Compound T126, 6-[3-[3,3-difluoro-1-[(4-methyl-1,2,4-triazol-3-yl)methyl]cyclobutyl]phenyl]-2-[[(3S)-3-methyl-1-piperidyl]methyl]-4-(trifluoromethyl)-1H-pyrrolo[2,3-c]pyridin-7-one] | <500 |
| < 50 | C[C@H]1CCCN(Cc2cc3c(C(F)(F)F)cn(-c4cccc([C@]5(c6nncn6C)C[C@@H](OC(F)(F)F)C5)c4)c(=O)c3[nH]2)C1 [Compound T130, 6-(3-((1s,3R)-1-(4-methyl-4H-1,2,4-triazol-3-yl)-3-(trifluoromethoxy)cyclobutyl)phenyl)-2-(((S)-3-methylpiperidin-1-yl)methyl)-4-(trifluoromethyl)-1,6-dihydro-7H-pyrrolo[2,3-c]pyridin-7-one] | <500 |
| < 50 | C[C@H]1CCCN(Cc2cc3c(C(F)(F)F)cn(-c4cccc([C@]5(c6nncn6C)C[C@H](OC(F)(F)F)C5)c4)c(=O)c3[nH]2)C1 [Compound T131, 6-(3-((1r,3S)-1-(4-methyl-4H-1,2,4-triazol-3-yl)-3-(trifluoromethoxy)cyclobutyl)phenyl)-2-(((S)-3-methylpiperidin-1-yl)methyl)-4-(trifluoromethyl)-1,6-dihydro-7H-pyrrolo[2,3-c]pyridin-7-one] | <500 |

| Structure (SMILES) | Ki [2] [nM] | IL-2 CFC=5/nM [1] [nM] |
| --- | --- | --- |
| Cn1cnnc1C1(c2cccc(-n3cc(C(F)(F)F)c4cc(CNCCOC5CCCC5)[nH]c4c3=O)c2)CCC1 [Compound T097, 2-[[2-(cyclopentoxy)ethylamino]methyl]-6-[3-[1-(4-methyl-1,2,4-triazol-3-yl)cyclobutyl]phenyl]-4-(trifluoromethyl)-1H-pyrrolo[2,3-c]pyridin-7-one] | < 50 | <500 |
| CCNCc1cc2c(C(F)(F)F)cn(-c3cccc(C4(c5nncn5C)CCC4)c3)c(=O)c2[nH]1 [Compound T102, 2-((ethylamino)methyl)-6-(3-(1-(4-methyl-4H-1,2,4-triazol-3-yl)cyclobutyl)phenyl)-4-(trifluoromethyl)-1,6-dihydro-7H-pyrrolo[2,3-c]pyridin-7-one] | < 50 | <500 |
| CC(C)NCc1cc2c(C(F)(F)F)cn(-c3cccc(C4(c5nncn5C)CCC4)c3)c(=O)c2[nH]1 [Compound T104, 2-((isopropylamino)methyl)-6-(3-(1-(4-methyl-4H-1,2,4-triazol-3-yl)cyclobutyl)phenyl)-4-(trifluoromethyl)-1,6-di hydro-7H-pyrrolo[2,3-c]pyridin-7-one] | < 50 | <500 |
